Assay [1] concerns the target CDK2/Cyclin A2 (Homo sapiens, UniProt P24941). The assay can be described thus: Inhibition of full-length human CDK2/N-terminal GST-tagged Cyclin A2 (1 to 432 residues) expressed in Baculovirus expression system using FAM-P8/P18 as substrate measured after 40 mins.
Assay [2] deals with MCF7. The assay can be described thus: Antiproliferative activity against human MCF7 cells after 24 hrs by MTT assay. The format is functional, cell-based. Conditions: MCF7, 24 h. On the technique in general: Formazan colour is commonly taken as a measure of viable cells.
In assay [3] the test system is HCT-116. The assay can be described thus: Antiproliferative activity against human HCT116 cells after 24 hrs by MTT assay. The format is functional, cell-based. Conditions: HCT-116, 24 h.
For assay [4], the target named is Cyclin-dependent kinase 7 (Homo sapiens, UniProt P50613). The assay can be described thus: Inhibition of CDK7 (unknown origin).
Chain of Cyclin-dependent kinase 7 (P50613 whole entry): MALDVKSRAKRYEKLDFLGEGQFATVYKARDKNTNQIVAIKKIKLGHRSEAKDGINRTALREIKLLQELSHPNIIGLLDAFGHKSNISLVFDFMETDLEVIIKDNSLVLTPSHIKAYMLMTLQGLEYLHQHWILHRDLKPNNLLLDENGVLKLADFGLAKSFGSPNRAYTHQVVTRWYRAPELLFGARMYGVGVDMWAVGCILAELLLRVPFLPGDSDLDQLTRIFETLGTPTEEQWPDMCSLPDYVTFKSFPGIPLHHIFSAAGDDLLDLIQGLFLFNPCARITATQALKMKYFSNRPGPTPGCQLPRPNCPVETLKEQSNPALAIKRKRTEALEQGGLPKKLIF
In assay [5] the target is Cyclin-dependent kinase 5 (Homo sapiens, UniProt Q00535). The experiment in a line: Inhibition of CDK5 (unknown origin).
Chain of Cyclin-dependent kinase 5 (Q00535 whole entry): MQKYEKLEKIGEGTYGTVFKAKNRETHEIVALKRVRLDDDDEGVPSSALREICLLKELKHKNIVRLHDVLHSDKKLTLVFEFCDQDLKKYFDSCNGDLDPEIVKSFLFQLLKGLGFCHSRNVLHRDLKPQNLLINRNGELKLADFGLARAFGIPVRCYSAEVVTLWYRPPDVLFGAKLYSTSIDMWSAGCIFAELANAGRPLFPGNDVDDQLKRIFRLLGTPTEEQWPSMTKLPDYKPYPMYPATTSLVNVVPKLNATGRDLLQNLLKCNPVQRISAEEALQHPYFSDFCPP
The target of assay [6] is Cyclin-dependent kinase 1 (Homo sapiens, UniProt P06493). The assay can be described thus: Inhibition of CDK1 (unknown origin).
Chain of Cyclin-dependent kinase 1 (P06493 whole entry): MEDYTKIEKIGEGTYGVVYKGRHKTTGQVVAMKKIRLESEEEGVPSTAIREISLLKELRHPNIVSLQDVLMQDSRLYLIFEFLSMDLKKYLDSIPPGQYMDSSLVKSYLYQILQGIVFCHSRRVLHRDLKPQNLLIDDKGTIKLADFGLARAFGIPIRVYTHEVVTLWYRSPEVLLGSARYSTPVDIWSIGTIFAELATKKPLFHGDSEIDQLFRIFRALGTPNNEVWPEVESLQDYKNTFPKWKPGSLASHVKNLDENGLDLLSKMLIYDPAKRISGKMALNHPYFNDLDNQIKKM
Assay [7] addresses Cyclin-dependent kinase 6 (Homo sapiens, UniProt Q00534). The experiment in a line: Inhibition of CDK6 (unknown origin).
Assay [8] addresses Cyclin-dependent kinase 4 (Homo sapiens, UniProt P11802). The assay can be described thus: Inhibition of CDK4 (unknown origin).

Chain of Cyclin-dependent kinase 6 (Q00534 whole entry): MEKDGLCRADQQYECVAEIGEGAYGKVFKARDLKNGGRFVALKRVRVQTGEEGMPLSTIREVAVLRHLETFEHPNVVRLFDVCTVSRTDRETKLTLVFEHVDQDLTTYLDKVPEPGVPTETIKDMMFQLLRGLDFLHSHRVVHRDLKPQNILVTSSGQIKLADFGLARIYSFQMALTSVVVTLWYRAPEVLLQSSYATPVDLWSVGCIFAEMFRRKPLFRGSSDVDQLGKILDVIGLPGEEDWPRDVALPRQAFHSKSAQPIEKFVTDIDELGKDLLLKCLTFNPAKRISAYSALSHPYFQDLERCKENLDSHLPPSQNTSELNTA
Chain of Cyclin-dependent kinase 4 (P11802 whole entry): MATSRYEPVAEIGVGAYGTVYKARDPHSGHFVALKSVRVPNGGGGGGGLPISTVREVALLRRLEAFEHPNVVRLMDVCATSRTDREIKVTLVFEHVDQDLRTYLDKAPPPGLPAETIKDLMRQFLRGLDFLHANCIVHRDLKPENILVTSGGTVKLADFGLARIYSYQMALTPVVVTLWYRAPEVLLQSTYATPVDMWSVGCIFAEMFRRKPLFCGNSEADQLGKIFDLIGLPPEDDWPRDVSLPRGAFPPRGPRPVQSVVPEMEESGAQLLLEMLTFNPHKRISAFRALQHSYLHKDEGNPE

For `Nc1ncc2c(n1)-c1cnc(Nc3ccc(Cl)cc3)nc1CC2`, the IC50 in assay [1] is 1.85 µM; in assay [2], more than 30 µM; in assay [3], more than 30 µM.

As to `CSc1ncc2c(n1)CCc1cnc(Nc3ccc(Cl)cc3)nc1-2`, the 50% inhibitory concentration (IC50) in assay [1] turned out to be 0.38 µM; in assay [2], 7 µM; in assay [3], 8.3 µM.

As for `Nc1ncc2c(n1)-c1cnc(Nc3ccc(C(=O)N4CCOCC4)cc3)nc1CC2`, the IC50 in assay [2] and in assay [3] was more than 30 µM in each case.

For `CSc1ncc2c(n1)CCc1cnc(Nc3ccc(C(=O)N(C)C)cc3)nc1-2`, the IC50 in assay [1] turned out to be 0.53 µM; in assay [2], 3.7 µM; in assay [3] it was 5.3 µM.

On to `CSc1ncc2c(n1)CCc1cnc(Nc3ccc(C(=O)N(C)CCN(C)C)cc3)nc1-2`, for which the concentration for half-maximal inhibition (IC50) was found to be 0.09 µM in assay [1]; 3.6 µM in assay [4]; 1.1 µM in assay [2]; 1.4 µM in assay [3]; 0.68 µM in assay [5]; 1.25 µM in assay [6]. Further, the IC50 in assay [7] and in assay [8] was more than 5 µM each time.

With `CSc1ncc2c(n1)CCc1cnc(Nc3ccc(C(=O)O)cc3)nc1-2`, the half-maximal inhibitory concentration (IC50) in assay [1] stood at 0.98 µM; in assay [2], 17.8 µM; in assay [3], 12.8 µM.

For the compound `CN(C)CCN(C)C(=O)c1ccc(Nc2ncc3c(n2)CCc2cnc(N)nc2-3)cc1`, the half-maximal inhibitory concentration (IC50) is 3.2 µM in assay [1], more than 30 µM in assay [2] and more than 30 µM in assay [3].

`CN1CCN(C(=O)c2ccc(Nc3ncc4c(n3)CCc3cnc(N)nc3-4)cc2)CC1`: the IC50 is 5.9 µM in assay [1], more than 30 µM in assay [2] and more than 30 µM in assay [3].

Turning to `Clc1ccc(Nc2ncc3c(n2)-c2cnc(Nc4ccccc4)nc2CC3)cc1`, the 50% inhibitory concentration (IC50) in assay [1] came to 2.03 µM; in assay [2], 23.5 µM; in assay [3], 26.3 µM.

Turning to `CSc1ncc2c(n1)CCc1cnc(Nc3ccc(F)cc3)nc1-2`, the IC50 in assay [1] was found to be 0.35 µM; in assay [2], 8.4 µM; in assay [3], 7.9 µM.

For `CSc1ncc2c(n1)CCc1cnc(Nc3ccc(C(=O)N4CCN(C(=O)OC(C)(C)C)CC4)cc3)nc1-2`, the IC50 in assay [1] is 3.7 µM; in assay [2], 19.4 µM; in assay [3], 17.2 µM.

As for `CC(C)(C)c1cnc(CSc2cnc(NC(=O)C3CCNCC3)s2)o1` [BMS-387032], the half-maximal inhibitory concentration (IC50) in assay [2] was determined as 1 µM; in assay [3] it was 0.7 µM.

As to `CSc1ncc2c(n1)CCc1cnc(Nc3ccccc3)nc1-2`, the concentration for half-maximal inhibition (IC50) amounted to 0.41 µM in assay [1], 15.6 µM in assay [2] and 12.7 µM in assay [3].

Take `CSc1ncc2c(n1)CCc1cnc(Nc3ccc(C(=O)N4CCOCC4)cc3)nc1-2`: the IC50 in assay [1] amounted to 0.19 µM; in assay [2], 2.1 µM; in assay [3], 3.2 µM.

In the case of `CCOC(=O)c1ccc(Nc2ncc3c(n2)CCc2cnc(N)nc2-3)cc1`, the IC50 in assay [2] and in assay [3] was more than 30 µM throughout.

On to `c1ccc(Nc2ncc3c(n2)CCc2cnc(Nc4ccccc4)nc2-3)cc1`, for which the IC50 in assay [1] was found to be 1.54 µM; in assay [2] it was 20.6 µM; in assay [3], 18.1 µM.

As to `CSc1ncc2c(n1)CCc1cnc(Nc3ccc(C(N)=O)cc3)nc1-2`, the half-maximal inhibitory concentration (IC50) in assay [1] turned out to be 0.11 µM; in assay [2], 1.3 µM; in assay [3], 0.9 µM.

On to `CSc1ncc2c(n1)CCc1cnc(Nc3ccc(C(=O)N4CCN(C)CC4)cc3)nc1-2`, for which the figures for the 50% inhibitory concentration (IC50) in assay [1], in assay [2] and in assay [3] were 0.18 µM, 2.5 µM and 3.8 µM, respectively.

Take `CSc1ncc2c(n1)CCc1cnc(Nc3ccc(C(=O)NC4CCCC4)cc3)nc1-2`: the values for the IC50 in assay [1], in assay [2] and in assay [3] were 1.26 µM, 6.5 µM and 9.1 µM, respectively.

In the case of `CSc1ncc2c(n1)CCc1cnc(Nc3ccc(C(=O)N4CCNCC4)cc3)nc1-2`, the values for the IC50 in assay [1], in assay [2] and in assay [3] were 0.16 µM, 1.5 µM and 1.3 µM, respectively.

`CSc1ncc2c(n1)CCc1cnc(Nc3ccc(N)cc3)nc1-2`: the values for the IC50 in assay [1], in assay [2] and in assay [3] were 0.16 µM, 1.4 µM and 1.6 µM, respectively.

As to `Nc1ncc2c(n1)-c1cnc(Nc3ccccc3)nc1CC2`, the IC50 turned out to be 1.7 µM in assay [1], 27.6 µM in assay [2] and 25.3 µM in assay [3].

Take `CCOC(=O)c1ccc(Nc2ncc3c(n2)-c2cnc(SC)nc2CC3)cc1`: the values for the IC50 in assay [1], in assay [2] and in assay [3] were 1.25 µM, 25.4 µM and 14.3 µM, respectively.

One may read the IC50 as the point on the concentration scale where inhibition reaches its midpoint. Read a low IC50 as higher potency.

For the origin of these results see ChEMBL document CHEMBL4265909, “Synthesis and biological evaluation of novel 5,6-dihydropyrimido[4,5-f]quinazoline derivatives as potent CDK2 inhibitors” (Bioorg Med Chem Lett, 2018).
